In paper PMC9719519, “Non-classical ferroptosis inhibition by a small molecule targeting PHB2” (Nature Communications, 2022):

Experiments:
Assay in all cases: biochemical
Design in all cases: Eurofins recombinant human kinase profiling, remaining kinase activity as % of control, 10 uM ATP
Details in all cases: ATP 10 uM; read-out: %Ctrl@10 μM
JAK3(h) = JAK3(h) (Homo sapiens, UniProt P52333)
Summary of the method: (§1)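 Activity measured in a commercial panel of 401 recombinant human protein kinases run as a kinase profiling service.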

TTBK2(h) = TTBK2(h) (Homo sapiens, UniProt Q6IQ55)
Summary of the method: as §1

NEK9(h) = NEK9(h) (Homo sapiens, UniProt Q8TD19)
Summary of the method: as §1

NLK(h) = NLK(h) (Homo sapiens, UniProt Q9UBE8)
Summary of the method: as §1

CDKL4(h) = CDKL4(h) (Homo sapiens, UniProt Q5MAI5)
Summary of the method: as §1

MAPKAP-K2(h) = target: T1, MAPKAP-K2(h) (Homo sapiens, UniProt P49137)
T1 construct: gene MAPKAPK2
Summary of the method: as §1

Abl(T315I)(h) = target: T2, Abl(T315I)(h) (Homo sapiens, UniProt P00519, T315I)
T2 construct: gene ABL1
Summary of the method: as §1

CaMKIγ(h) = target: T3, CaMKIγ(h) (Homo sapiens, UniProt Q96NX5)
T3 construct: gene CAMK1G
Summary of the method: as §1

CHK2(I157T)(h) = target: T4, CHK2(I157T)(h) (Homo sapiens, UniProt O96017, I157T)
T4 construct: gene CHEK2
Summary of the method: as §1

PKBα(h) = target: T5, PKBα(h) (Homo sapiens, UniProt P31749)
T5 construct: gene AKT1
Summary of the method: as §1

EphB3(h) = EphB3(h) (Homo sapiens, UniProt P54753)
Summary of the method: as §1

Src(T341M)(h) = Src(T341M)(h) (Homo sapiens, UniProt P12931, T341M)
Summary of the method: as §1

PTK5(h) = target: T6, PTK5(h) (Homo sapiens, UniProt P42685)
T6 construct: gene FRK
Summary of the method: as §1

TAO2(h) = target: T7, TAO2(h) (Homo sapiens, UniProt Q9UL54)
T7 construct: gene TAOK2
Summary of the method: as §1

EphA1(h) = EphA1(h) (Homo sapiens, UniProt P21709)
Summary of the method: as §1

PDGFRα(D842V)(h) = target: T8, PDGFRα(D842V)(h) (Homo sapiens, UniProt P16234, D842V)
T8 construct: gene PDGFRA
Summary of the method: as §1

Lck(h) = Lck(h) (Homo sapiens, UniProt P06239)
Summary of the method: as §1

EGFR(L858R)(h) = EGFR(L858R)(h) (Homo sapiens, UniProt P00533, L858R)
Summary of the method: as §1

CaMKIIδ(h) = target: T9, CaMKIIδ(h) (Homo sapiens, UniProt Q13557)
T9 construct: gene CAMK2D
Summary of the method: as §1

DRAK2(h) = target: T10, DRAK2(h) (Homo sapiens, UniProt O94768)
T10 construct: gene STK17B
Summary of the method: as §1

IRAK4(h) = IRAK4(h) (Homo sapiens, UniProt Q9NWZ3)
Summary of the method: as §1

EGFR(T790M,L858R)(h) = EGFR(T790M,L858R)(h) (Homo sapiens, UniProt P00533, L858R/T790M)
Summary of the method: as §1

EphA1(h), sequence (P21709 whole entry): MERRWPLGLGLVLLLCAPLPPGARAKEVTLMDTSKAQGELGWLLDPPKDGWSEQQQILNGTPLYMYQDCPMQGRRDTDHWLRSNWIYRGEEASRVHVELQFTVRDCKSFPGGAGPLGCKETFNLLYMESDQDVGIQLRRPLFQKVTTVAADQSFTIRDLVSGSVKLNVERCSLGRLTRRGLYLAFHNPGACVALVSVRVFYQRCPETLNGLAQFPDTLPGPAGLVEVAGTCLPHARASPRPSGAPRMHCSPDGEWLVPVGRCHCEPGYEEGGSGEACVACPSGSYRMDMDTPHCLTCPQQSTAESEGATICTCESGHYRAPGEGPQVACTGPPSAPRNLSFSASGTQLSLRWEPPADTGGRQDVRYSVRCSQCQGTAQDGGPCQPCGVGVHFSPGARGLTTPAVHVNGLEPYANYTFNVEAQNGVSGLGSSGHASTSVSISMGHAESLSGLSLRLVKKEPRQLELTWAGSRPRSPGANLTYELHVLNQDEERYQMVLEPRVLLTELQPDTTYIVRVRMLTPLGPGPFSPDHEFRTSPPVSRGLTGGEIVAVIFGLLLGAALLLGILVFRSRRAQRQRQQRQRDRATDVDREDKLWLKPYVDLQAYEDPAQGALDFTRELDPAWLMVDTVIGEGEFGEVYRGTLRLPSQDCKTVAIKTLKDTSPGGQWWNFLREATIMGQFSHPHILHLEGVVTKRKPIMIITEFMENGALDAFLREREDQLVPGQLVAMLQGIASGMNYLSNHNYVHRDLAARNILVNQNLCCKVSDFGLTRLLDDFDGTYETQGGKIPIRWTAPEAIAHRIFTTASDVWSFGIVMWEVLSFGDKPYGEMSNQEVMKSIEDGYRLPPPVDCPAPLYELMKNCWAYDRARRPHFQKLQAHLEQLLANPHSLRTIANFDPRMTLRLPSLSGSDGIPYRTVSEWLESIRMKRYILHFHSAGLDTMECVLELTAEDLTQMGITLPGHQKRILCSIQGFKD
T7 sequence (Q9UL54 whole entry): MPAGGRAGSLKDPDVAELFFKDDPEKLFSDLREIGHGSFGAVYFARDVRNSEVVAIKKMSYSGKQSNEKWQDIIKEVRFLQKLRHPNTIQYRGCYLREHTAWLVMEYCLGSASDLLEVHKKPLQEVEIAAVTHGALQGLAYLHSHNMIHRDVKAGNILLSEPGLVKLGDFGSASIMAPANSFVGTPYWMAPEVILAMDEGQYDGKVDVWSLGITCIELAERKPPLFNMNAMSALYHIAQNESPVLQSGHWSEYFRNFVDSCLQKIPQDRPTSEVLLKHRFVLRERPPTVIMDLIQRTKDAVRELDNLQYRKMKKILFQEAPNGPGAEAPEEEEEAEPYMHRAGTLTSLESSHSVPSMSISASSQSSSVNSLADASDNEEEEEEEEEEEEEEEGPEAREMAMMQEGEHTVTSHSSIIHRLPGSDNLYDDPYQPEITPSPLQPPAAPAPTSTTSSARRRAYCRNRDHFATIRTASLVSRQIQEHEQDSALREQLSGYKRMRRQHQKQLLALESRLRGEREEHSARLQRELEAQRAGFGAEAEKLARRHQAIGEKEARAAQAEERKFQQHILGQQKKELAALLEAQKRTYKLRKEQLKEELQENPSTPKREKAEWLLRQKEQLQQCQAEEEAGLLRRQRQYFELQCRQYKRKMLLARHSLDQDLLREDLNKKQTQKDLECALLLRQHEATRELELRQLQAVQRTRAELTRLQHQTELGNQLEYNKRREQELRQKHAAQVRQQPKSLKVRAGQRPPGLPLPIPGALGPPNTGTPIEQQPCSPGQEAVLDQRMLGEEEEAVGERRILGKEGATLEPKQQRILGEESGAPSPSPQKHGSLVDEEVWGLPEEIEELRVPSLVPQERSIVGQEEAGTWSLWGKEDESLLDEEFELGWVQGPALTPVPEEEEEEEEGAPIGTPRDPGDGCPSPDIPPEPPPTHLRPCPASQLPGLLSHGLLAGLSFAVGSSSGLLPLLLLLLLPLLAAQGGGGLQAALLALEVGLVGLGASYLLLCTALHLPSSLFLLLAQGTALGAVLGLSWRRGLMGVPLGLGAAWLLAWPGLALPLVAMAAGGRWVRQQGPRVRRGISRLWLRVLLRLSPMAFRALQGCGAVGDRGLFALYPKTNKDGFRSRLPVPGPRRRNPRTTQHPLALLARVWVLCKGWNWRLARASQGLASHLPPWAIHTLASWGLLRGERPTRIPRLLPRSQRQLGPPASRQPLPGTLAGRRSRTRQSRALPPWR
T1 sequence (P49137 whole entry): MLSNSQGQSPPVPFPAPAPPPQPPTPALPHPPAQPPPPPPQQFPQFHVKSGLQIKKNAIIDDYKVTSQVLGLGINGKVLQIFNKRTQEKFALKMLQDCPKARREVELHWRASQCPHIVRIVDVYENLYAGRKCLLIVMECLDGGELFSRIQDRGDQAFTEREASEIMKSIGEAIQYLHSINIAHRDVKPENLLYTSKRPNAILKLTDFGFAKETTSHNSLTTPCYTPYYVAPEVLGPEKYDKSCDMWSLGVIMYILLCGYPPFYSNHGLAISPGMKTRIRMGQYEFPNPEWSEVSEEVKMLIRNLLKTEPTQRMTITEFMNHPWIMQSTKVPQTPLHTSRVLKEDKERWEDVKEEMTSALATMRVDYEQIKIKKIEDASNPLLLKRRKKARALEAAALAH
T6 sequence (P42685 whole entry): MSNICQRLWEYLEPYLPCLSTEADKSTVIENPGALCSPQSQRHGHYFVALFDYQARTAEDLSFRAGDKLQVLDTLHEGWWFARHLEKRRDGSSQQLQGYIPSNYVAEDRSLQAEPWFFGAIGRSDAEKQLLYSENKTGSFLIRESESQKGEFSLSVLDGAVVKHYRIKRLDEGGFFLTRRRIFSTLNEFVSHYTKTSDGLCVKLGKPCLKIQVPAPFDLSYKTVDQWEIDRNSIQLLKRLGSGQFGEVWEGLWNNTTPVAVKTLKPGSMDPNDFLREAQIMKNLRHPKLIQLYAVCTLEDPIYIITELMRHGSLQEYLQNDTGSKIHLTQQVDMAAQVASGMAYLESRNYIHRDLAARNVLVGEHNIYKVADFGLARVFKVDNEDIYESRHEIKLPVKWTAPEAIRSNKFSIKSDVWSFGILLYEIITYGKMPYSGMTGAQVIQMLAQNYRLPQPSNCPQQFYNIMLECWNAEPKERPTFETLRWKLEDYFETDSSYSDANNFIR
T3 sequence (Q96NX5 whole entry): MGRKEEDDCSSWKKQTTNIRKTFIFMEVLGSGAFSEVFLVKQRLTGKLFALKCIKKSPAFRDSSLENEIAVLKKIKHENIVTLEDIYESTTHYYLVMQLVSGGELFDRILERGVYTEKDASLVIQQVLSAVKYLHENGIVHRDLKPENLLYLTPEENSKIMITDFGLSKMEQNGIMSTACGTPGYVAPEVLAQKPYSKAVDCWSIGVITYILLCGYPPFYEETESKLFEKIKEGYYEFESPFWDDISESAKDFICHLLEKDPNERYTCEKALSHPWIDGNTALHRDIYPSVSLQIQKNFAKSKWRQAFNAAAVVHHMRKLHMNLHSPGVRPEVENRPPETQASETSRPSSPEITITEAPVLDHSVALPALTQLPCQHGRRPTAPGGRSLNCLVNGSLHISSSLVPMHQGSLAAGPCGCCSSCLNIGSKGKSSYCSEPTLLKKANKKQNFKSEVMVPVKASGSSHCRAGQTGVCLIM
T9 sequence (Q13557 whole entry): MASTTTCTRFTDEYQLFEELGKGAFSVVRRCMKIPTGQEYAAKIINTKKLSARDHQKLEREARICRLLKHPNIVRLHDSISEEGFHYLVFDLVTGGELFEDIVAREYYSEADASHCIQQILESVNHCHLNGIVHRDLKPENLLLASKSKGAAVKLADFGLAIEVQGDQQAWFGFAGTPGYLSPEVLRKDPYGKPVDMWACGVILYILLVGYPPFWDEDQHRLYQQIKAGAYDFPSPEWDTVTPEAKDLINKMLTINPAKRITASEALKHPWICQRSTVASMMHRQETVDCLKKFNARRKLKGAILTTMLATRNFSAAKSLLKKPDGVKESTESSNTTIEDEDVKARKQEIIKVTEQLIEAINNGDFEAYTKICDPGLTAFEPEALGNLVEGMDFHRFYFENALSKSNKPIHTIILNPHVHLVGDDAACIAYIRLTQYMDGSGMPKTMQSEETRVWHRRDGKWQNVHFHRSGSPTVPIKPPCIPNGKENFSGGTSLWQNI
T10 sequence (O94768 whole entry): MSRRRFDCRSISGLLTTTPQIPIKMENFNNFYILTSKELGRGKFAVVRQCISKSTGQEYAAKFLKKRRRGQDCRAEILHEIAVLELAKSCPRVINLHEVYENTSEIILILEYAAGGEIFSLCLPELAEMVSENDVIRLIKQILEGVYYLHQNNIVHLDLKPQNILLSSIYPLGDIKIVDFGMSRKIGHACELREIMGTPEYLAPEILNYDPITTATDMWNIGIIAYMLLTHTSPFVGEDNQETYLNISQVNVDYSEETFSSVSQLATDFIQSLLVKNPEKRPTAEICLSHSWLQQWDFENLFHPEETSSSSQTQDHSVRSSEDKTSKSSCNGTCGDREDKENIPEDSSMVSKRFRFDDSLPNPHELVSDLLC
IRAK4(h), sequence (Q9NWZ3 whole entry): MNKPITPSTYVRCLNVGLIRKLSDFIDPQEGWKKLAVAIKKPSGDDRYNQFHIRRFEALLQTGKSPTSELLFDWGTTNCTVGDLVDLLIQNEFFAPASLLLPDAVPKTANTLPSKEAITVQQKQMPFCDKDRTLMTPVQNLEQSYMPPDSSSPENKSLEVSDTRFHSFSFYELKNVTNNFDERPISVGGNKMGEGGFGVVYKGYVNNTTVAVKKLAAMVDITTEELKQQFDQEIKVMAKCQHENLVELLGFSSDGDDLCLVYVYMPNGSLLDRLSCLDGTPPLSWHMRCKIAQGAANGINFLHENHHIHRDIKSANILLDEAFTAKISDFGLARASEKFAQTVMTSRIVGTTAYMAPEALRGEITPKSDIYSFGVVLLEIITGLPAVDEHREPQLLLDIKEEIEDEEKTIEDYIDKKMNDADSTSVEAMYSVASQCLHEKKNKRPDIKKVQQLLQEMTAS

**Q.** `C1=C(c2nc(-c3cnn(C4CCNCC4)c3)cn3cc(-c4ccccc4)nc23)CCOC1` [YL-939] was tested. Which remaining activity at 10 µM (JAK3(h)) did it give?
**A.** Its remaining activity at 10 µM is 91%.

**Q.** And the remaining activity at 10 µM (TTBK2(h))?
**A.** The remaining activity at 10 µM was 87%.

**Q.** And the remaining activity at 10 µM (NEK9(h))?
**A.** The remaining activity at 10 µM was 99%.

**Q.** And the remaining activity at 10 µM (NLK(h))?
**A.** The remaining activity at 10 µM was 86%.

**Q.** And the remaining activity at 10 µM (CDKL4(h))?
**A.** The remaining activity at 10 µM was 76%.

**Q.** And the remaining activity at 10 µM (MAPKAP-K2(h))?
**A.** The remaining activity at 10 µM was 92%.

**Q.** What about the remaining activity at 10 µM (Abl(T315I)(h)) of the same compound?
**A.** The remaining activity at 10 µM was 119%.

**Q.** And the remaining activity at 10 µM (CaMKIγ(h))?
**A.** The remaining activity at 10 µM was 108%.

**Q.** And the remaining activity at 10 µM (CHK2(I157T)(h))?
**A.** The remaining activity at 10 µM was 87%.

**Q.** And the remaining activity at 10 µM (PKBα(h))?
**A.** The remaining activity at 10 µM was 68%.

**Q.** What about the remaining activity at 10 µM (EphB3(h)) of the same compound?
**A.** Its remaining activity at 10 µM is 93%.

**Q.** And the remaining activity at 10 µM (Src(T341M)(h))?
**A.** The remaining activity at 10 µM was 100%.

**Q.** And the remaining activity at 10 µM (PTK5(h))?
**A.** The remaining activity at 10 µM was 75%.

**Q.** And the remaining activity at 10 µM (TAO2(h))?
**A.** Its remaining activity at 10 µM is 90%.

**Q.** What about the remaining activity at 10 µM (EphA1(h)) of the same compound?
**A.** Its remaining activity at 10 µM is 109%.

**Q.** And the remaining activity at 10 µM (PDGFRα(D842V)(h))?
**A.** The remaining activity at 10 µM was 113%.

**Q.** What about the remaining activity at 10 µM (Lck(h)) of the same compound?
**A.** The remaining activity at 10 µM was 122%.

**Q.** What about the remaining activity at 10 µM (EGFR(L858R)(h)) of the same compound?
**A.** The remaining activity at 10 µM was 86%.

**Q.** And the remaining activity at 10 µM (CaMKIIδ(h))?
**A.** Its remaining activity at 10 µM is 68%.

**Q.** And the remaining activity at 10 µM (DRAK2(h))?
**A.** The remaining activity at 10 µM was 128%.

**Q.** What about the remaining activity at 10 µM (IRAK4(h)) of the same compound?
**A.** Its remaining activity at 10 µM is 96%.

**Q.** What about the remaining activity at 10 µM (EGFR(T790M,L858R)(h)) of the same compound?
**A.** Its remaining activity at 10 µM is 91%.
